In patent publication US9670161B2, “5-fluoro-N-(pyridin-2-yl)pyridin-2-amine derivatives containing a sulfone group” (BAYER PHARMA AKTIENGESELLSCHAFT, priority 2012, dated 2017):

Experiments:
[1] = test system: A2780, human ovarian carcinoma cells; assay: Proliferation assay, A2780 (crystal violet); assay type: cell-based; details: 96 h, A2780, 4 days, read-out: Inhibition of A2780 cell proliferation IC50
Description: (§1) Cultivated tumour cells (HeLa, human cervical tumour cells, ATCC CCL-2; NCI-H460, human non-small cell lung carcinoma cells, ATCC HTB-177; A2780, human ovarian carcinoma cells, ECACC #93112519; DU 145, hormone-independent human prostate carcinoma cells, ATCC HTB-81; HeLa-MaTu-ADR, multidrug-resistant human cervical carcinoma cells, EPO-GmbH Berlin; Caco-2, human colorectal carcinoma cells, ATCC HTB-37; B16F10, mouse melanoma cells, ATCC CRL-6475) were plated at a density of 5,000 cells/well (DU145, HeLa-MaTu-ADR), 3,000 cells/well (NCI-H460, HeLa), 2,500 cells/well (A2780), 1,500 cells/well (Caco-2), or 1,000 cells/well (B16F10) in a 96-well multititer plate in 200 μL of their respective growth medium supplemented 10% fetal calf serum. […] Cell proliferation was determined by staining the cells with crystal violet: the cells were fixed by adding 20 μl/measuring point of an 11% glutaric aldehyde solution for 15 minutes at room temperature. […] The extinction was determined by photometry at a wavelength of 595 nm. The change of cell number, in percent, was calculated by normalization of the measured values to the extinction values of the zero-point plate (=0%) and the extinction of the untreated (0 μm) cells (=100%). […]

[2] = test system: HeLa-MaTu-ADR, multidrug-resistant human cervical carcinoma cells; assay: Proliferation assay, HeLa-MaTu-ADR (crystal violet); assay type: cell-based; details: 96 h, 4 days, read-out: Inhibition of HeLa-MaTu-ADR cell proliferation IC50
Description: as §1

[3] = test system: Caco-2, human colorectal carcinoma cells; assay: Proliferation assay, Caco-2 (crystal violet); assay type: cell-based; details: 96 h, Caco-2, 4 days, read-out: Inhibition of Caco-2 cell proliferation IC50
Description: as §1

[4] = test system: DU 145, hormone-independent human prostate carcinoma cells; assay: Proliferation assay, DU145 (crystal violet); assay type: cell-based; details: DU-145, 96 h, DU145, 4 days, read-out: Inhibition of DU145 cell proliferation IC50
Description: as §1

[5] = test system: HeLa, human cervical tumour cells; assay: Proliferation assay, HeLa (crystal violet); assay type: cell-based; details: 96 h, 4 days, read-out: Inhibition of HeLa cell proliferation IC50
Description: Cultivated tumour cells (HeLa, human cervical tumour cells, ATCC CCL-2; NCI-H460, human non-small cell lung carcinoma cells, ATCC HTB-177; A2780, human ovarian carcinoma cells, ECACC #93112519; DU 145, hormone-independent human prostate carcinoma cells, ATCC HTB-81; HeLa-MaTu-ADR, multidrug-resistant human cervical carcinoma cells, EPO-GmbH Berlin; Caco-2, human colorectal carcinoma cells, ATCC HTB-37; B16F10, mouse melanoma cells, ATCC CRL-6475) were plated at a density of 5,000 cells/well (DU145, HeLa-MaTu-ADR), 3,000 cells/well (NCI-H460, HeLa), 2,500 cells/well (A2780), 1,500 cells/well (Caco-2), or 1,000 cells/well (B16F10) in a 96-well multititer plate in 200 μL of their respective growth medium supplemented 10% fetal calf serum. After 24 hours, the cells of one plate (zero-point plate) were stained with crystal violet (see below), while the medium of the other plates was replaced by fresh culture medium (200 μl), to which the test substances were added in various concentrations (0 μM, as well as in the range of 0.001-10 μM; the final concentration of the solvent dimethyl sulfoxide was 0.5%). The cells were incubated for 4 days in the presence of test substances. Cell proliferation was determined by staining the cells with crystal violet: the cells were fixed by adding 20 μl/measuring point of an 11% glutaric aldehyde solution for 15 minutes at room temperature. After three washing cycles of the fixed cells with water, the plates were dried at room temperature. The cells were stained by adding 100 μl/measuring point of a 0.1% crystal violet solution (pH 3.0). After three washing cycles of the stained cells with water, the plates were dried at room temperature. The dye was dissolved by adding 100 μl/measuring point of a 10% acetic acid solution. The extinction was determined by photometry at a wavelength of 595 nm. The change of cell number, in percent, was calculated by normalization of the measured values to the extinction values of the zero-point plate (=0%) and the extinction of the untreated (0 μm) cells (=100%). The IC50 values (inhibitory concentration at 50% of maximal effect) were determined by means of a 4 parameter fit.

[6] = Caco-2 permeation assay; assay type: in vitro ADME; details: human, pH 7.2
Description: 4. Caco-2 Permeation Assay:
Caco-2 cells (purchased from DSMZ Braunschweig, Germany) were seeded at a density of 4.5×10^4 cells per well on 24 well insert plates, 0.4 μm pore size, and grown for 15 days in DMEM medium supplemented with 10% fetal bovine serum, 1% GlutaMAX (100×, GIBCO), 100 U/mL penicillin, 100 μg/mL streptomycin (GIBCO) and 1% non essential amino acids (100×). Cells were maintained at 37° C. in a humified 5% CO2 atmosphere. Medium was changed every 2-3 day. Before running the permeation assay, the culture medium was replaced by a FCS-free hepes-carbonate transport buffer (pH 7.2). For assessment of monolayer integrity the transepithelial electrical resistance (TEER) was measured. Test compounds were predissolved in DMSO and added either to the apical or basolateral compartment in final concentration of 2 μM in transport buffer. Before and after 2 h incubation at 37° C. samples were taken from both compartments. Analysis of compound content was done after precipitation with methanol by LC/MS/MS analysis. Permeability (Papp) was calculated in the apical to basolateral (A→B) and basolateral to apical (B→A) directions. The apparent permeability was calculated using following equation: Papp=(Vr/Po)(1/S)(P2/t)
Where Vr is the volume of medium in the receiver chamber, Po is the measured peak area or height of the test drug in the donor chamber at t=o, S the surface area of the monolayer, P2 is the measured peak area of the test drug in the acceptor chamber after 2 h of incubation, and t is the incubation time. The efflux ratio basolateral (B) to apical (A) was calculated by dividing the Papp B-A by the Papp A-B. In addition the compound recovery was calculated. The following reference compounds were used for the classification of the permeability class: Antipyrine, Pyrazosin, Verapamil, Fluvastatin, Cimetidine, Ranitidine, Atenolol, Sulfasalazine.

[7] = test system: B16F10, mouse melanoma cells; assay: Proliferation assay, B16F10 (crystal violet); assay type: cell-based; details: B16-F10, 96 h, B16F10, 4 days, read-out: Inhibition of B16F10 cell proliferation IC50
Description: as §1

[8] = test system: NCI-H460, human non-small cell lung carcinoma cells; assay: Proliferation assay, NCI-H460 (crystal violet); assay type: cell-based; details: 96 h, NCI-H460, 4 days, read-out: Inhibition of NCI-H460 cell proliferation IC50
Description: as §1

[9] = Caco-2 monolayer, 2 μM test compound, 2 h

Compound | IC50 [1] [nM] | IC50 [2] [nM] | IC50 [3] [nM] | IC50 [4] [nM] | IC50 [5] [nM] | efflux ratio at 2 h, 2 μM ([6]; Papp B-A / Papp A-B, Caco-2, 2 μM test compound) | Papp A→B at 2 h, 2 μM [6, 9] [×10⁻⁶ cm/s] | Papp B→A at 2 h, 2 μM [6, 9] [×10⁻⁶ cm/s] | IC50 [7] [nM] | IC50 [8] [nM]
COc1cc(F)ccc1-c1cc(Nc2cc(CS(C)(=O)=O)ccn2)ncc1F [Example 1, 5-Fluoro-4-(4-fluoro-2-methoxyphenyl)-N-{4-[(methylsulfonyl)methyl]pyridin-2-yl}pyridin-2-amine] | 28 | 37 | 70 | 56 | 84 | 0.49 | 20.7 | 10.1 | 100 | 62
COc1cc(F)ccc1-c1cc(Nc2cc(CS(C)(=O)=O)cc(C)n2)ncc1F [Example 2, 5-Fluoro-4-(4-fluoro-2-methoxyphenyl)-N-{6-methyl-4-[(methylsulfonyl)methyl]pyridin-2-yl}pyridin-2-amine] |  | 59 | 37 | 84 | 37 |  |  |  | 100 | 94
COc1cc(F)ccc1-c1cc(Nc2cc(CS(C)(=O)=O)cc(F)n2)ncc1F [Example 3, 5-Fluoro-4-(4-fluoro-2-methoxyphenyl)-N-{6-fluoro-4-[(methylsulfonyl)methyl]pyridin-2-yl}pyridin-2-amine] |  |  |  |  | 100 |  |  |  |  | 
COc1cc(F)ccc1-c1cc(Nc2cc(CS(C)(=O)=O)cc(C(F)(F)F)n2)ncc1F [Example 4, 5-Fluoro-4-(4-fluoro-2-methoxyphenyl)-N-{4-[(methylsulfonyl)methyl]-6-(trifluoromethyl)pyridin-2-yl}pyridin-2-amine] |  |  |  |  | 16 |  |  |  |  | 
COc1cc(F)ccc1-c1cc(Nc2cc(CS(C)(=O)=O)cc(C(F)F)n2)ncc1F [Example 5, N-{6-(Difluoromethyl)-4-[(methylsulfonyl)methyl]pyridin-2-yl}-5-fluoro-4-(4-fluoro-2-methoxyphenyl)pyridin-2-amine] |  |  |  |  | < 30 |  |  |  |  | 
